In one assay the test system is HCT-116. Briefly: Cytotoxicity against human HCT-116 cells assessed as inhibition of cell growth incubated for 4 days by CCK-8 assay. Type of assay: functional, cell-based. The note with it: HCT-116, 96 h.
In the next assay the test system is DU-145. Description: Cytotoxicity against human DU-145 cells assessed as inhibition of cell growth incubated for 4 days by CCK-8 assay. Format: functional, cell-based. The note with it: DU-145, 96 h.

For the compound `COC1=C(C)C(=O)C2=C(C1=O)[C@@H]1[C@@H]3CC4=C(C(=O)C(O)=C(C)C4=O)[C@H](CNC(=O)C(C)=O)N3[C@@H](C#N)[C@H](C2)N1C`, the IC50 in the assay on HCT-116 came out at 1200 nM; in the assay on DU-145, 680 nM.

Consider `C/C=C(/C)C(=O)OC[C@H]1C2=C(C[C@H]3[C@H]4C5=C(C[C@@H]([C@H](C#N)N13)N4C)C(=O)C(C)=C(OC)C5=O)C(=O)C(C)=C(O)C2=O` [RENIERAMYCIN S], for which the IC50 came out at 160 nM with HCT-116 and 72 nM with DU-145.

Regarding `C/C=C(/C)C(=O)OC[C@H]1C2=C(C[C@H]3CN(C)C[C@H](C#N)N31)C(=O)C(C)=C(OC)C2=O`, the IC50 with HCT-116 turned out to be 2200 nM; with DU-145, 7300 nM.

On to `COC1=C(C)C(=O)C2=C(C1=O)[C@@H]1[C@@H]3CC4=C(C(=O)C(OC)=C(C)C4=O)[C@H](CNC(=O)C(C)=O)N3[C@@H](C#N)[C@H](C2)N1C` [SAFRAMYCIN A], for which the figures for the IC50 with HCT-116 and with DU-145 were 20 nM and 8 nM, respectively.

Turning to `C/C=C(/C)C(=O)OC[C@H]1C2=C(C[C@H]3[C@H]4C5=C(C[C@@H]([C@H](C#N)N13)N4C)C(=O)C(C)=C(OC)C5=O)C(=O)C(C)=C(OC)C2=O` [RENIERAMYCIN M], the IC50 with HCT-116 amounted to 18 nM; with DU-145 it was 4 nM.

For `C/C=C(/C)C(=O)OC[C@H]1c2c(c(O)c(C)c3c2OCO3)C[C@H]2[C@H]3C4=C(C[C@@H]([C@H](C#N)N12)N3C)C(=O)C(C)=C(OC)C4=O`, the IC50 amounted to 82 nM in the assay with HCT-116 and 50 nM in the assay on DU-145.

Turning to `C/C=C(/C)C(=O)OC[C@H]1c2c(c(OC(C)=O)c(C)c3c2OCO3)C[C@H]2[C@H]3C4=C(C[C@@H]([C@H](C#N)N12)N3C)C(=O)C(C)=C(OC)C4=O`, the IC50 with HCT-116 and with DU-145 was 32 nM each time.

For `COC1=C(C)C(=O)C2=C(C1=O)[C@@H]1[C@@H]3Cc4c(OC(C)=O)c(C)c5c(c4[C@H](CNC(=O)C(C)=O)N3[C@@H](C#N)[C@H](C2)N1C)OCO5`, the IC50 in the assay with HCT-116 was found to be 27 nM; in the assay on DU-145, 6 nM.

On to `C/C=C(/C)C(=O)OC[C@H]1c2c(c(O)c(C)c3c2OCO3)C[C@H]2CN(C)C[C@H](C#N)N21`, for which the IC50 with HCT-116 and with DU-145 was > 20000 nM each time.

For `COC1=C(C)C(=O)C2=C(C1=O)[C@@H]1[C@@H]3Cc4c(O)c(C)c5c(c4[C@H](CNC(=O)C(C)=O)N3[C@@H](C#N)[C@H](C2)N1C)OCO5`, the 50% inhibitory concentration (IC50) with HCT-116 is 230 nM; in the assay with DU-145, 140 nM.

The values are drawn from ChEMBL document CHEMBL5226378, “Transformation of Renieramycin M into Renieramycins T and S by Intramolecular Photoredox Reaction of 7-Methoxy-6-methyl-1,2,3,4-tetrahydroisoquinoline-5,8-dione Derivatives” (J Nat Prod, 2023).
